The values below are quoted from earlier work in patent US20190224170A1, “THERAPIES AND METHODS TO TREAT INFLAMMATORY GASTROINTESTINAL DISEASES AND DISORDERS” (The Regents of the University of California, priority 2018, published 2019).

The series has as its system multiple sclerosis. The settings on record: supplementation with high doses of biotin.

Molecules are shown by their SMILES.

`O=C(O)CCCC[C@@H]1SC[C@@H]2NC(=O)N[C@@H]21` [biotin]: the clinical response entry is given as “distinctive positive clinical response”.
